Measurements taken from patent US9266869B2, “Substituted dialkyl(oxido)-lambda4-sulfanylidene nicotinamide derivatives as kinase inhibitors” (Allergan, Inc., priority 2013, dated 2016).

Experiments:
[1] = biological target: T1, PDGFRβ (Homo sapiens (Human), UniProt P09619); experiment: PDGFRβ Cellular Assay (PDGF-induced intracellular calcium, FLIPR, NHDF-Ad); type: cell-based; conditions: PDGF-BB stimulation (30 ng/mL)
Procedure: (§1) Automated FLIPR (Fluorometric Imaging Plate Reader) technology was used to screen for inhibitors of PDGF-induced increases in intracellular calcium levels in fluorescent dye loaded endothelial cells. NHDF-Ad (Normal Human Dermal Fibroblasts, Adult; Lonza) were seeded in 384-well fibronectin coated black-walled plates overnight @ 37° C./5% CO2. Cells were loaded with calcium indicator Fluo-4 for 45 minutes at 37° C. Cells were washed 2 times (Elx405, Biotek Instruments) to remove extracellular dye. For screening, cells were pre-incubated with test agents for 30 minutes, at a single concentration (10 uM) or at concentrations ranging from 0.0001 to 10.0 uM followed by PDGF-BB stimulation (30 ng/mL). Changes in fluorescence at 516 nm were measured simultaneously in all 384 wells using a cooled CCD camera. Data were generated by determining max-min fluorescence levels for unstimulated, stimulated, and drug treated samples. IC50 values for test compounds were calculated from % inhibition of PDGF-BB stimulated responses in the absence of inhibitor.
Target sequence in this assay (P09619 33-1106): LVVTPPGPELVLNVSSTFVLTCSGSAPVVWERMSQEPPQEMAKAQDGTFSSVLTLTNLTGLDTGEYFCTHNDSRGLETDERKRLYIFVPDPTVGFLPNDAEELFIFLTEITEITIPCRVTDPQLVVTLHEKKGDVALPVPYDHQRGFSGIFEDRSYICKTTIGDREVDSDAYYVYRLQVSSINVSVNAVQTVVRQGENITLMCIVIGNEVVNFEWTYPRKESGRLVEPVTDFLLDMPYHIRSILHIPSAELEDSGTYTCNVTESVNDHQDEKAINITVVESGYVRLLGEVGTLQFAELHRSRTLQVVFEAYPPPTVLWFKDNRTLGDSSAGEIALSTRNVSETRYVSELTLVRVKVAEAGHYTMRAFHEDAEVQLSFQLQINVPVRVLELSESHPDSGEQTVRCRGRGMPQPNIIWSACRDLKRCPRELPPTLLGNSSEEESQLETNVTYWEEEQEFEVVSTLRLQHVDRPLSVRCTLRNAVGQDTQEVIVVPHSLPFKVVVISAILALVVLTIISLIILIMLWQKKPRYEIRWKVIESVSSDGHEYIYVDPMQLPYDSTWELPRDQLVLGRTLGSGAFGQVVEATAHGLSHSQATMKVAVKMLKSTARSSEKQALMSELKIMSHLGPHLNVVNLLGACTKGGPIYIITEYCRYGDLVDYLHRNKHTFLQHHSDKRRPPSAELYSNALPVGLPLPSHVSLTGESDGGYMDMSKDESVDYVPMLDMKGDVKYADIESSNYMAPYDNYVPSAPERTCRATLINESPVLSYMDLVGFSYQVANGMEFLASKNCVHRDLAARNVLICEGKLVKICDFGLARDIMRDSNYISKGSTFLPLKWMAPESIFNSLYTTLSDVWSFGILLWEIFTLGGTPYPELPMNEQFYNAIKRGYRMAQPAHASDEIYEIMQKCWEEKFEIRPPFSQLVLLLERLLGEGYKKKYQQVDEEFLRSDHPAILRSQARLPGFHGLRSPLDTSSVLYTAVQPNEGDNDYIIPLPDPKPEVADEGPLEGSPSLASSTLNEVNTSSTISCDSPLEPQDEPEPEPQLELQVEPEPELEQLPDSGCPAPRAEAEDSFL

[2] = biological target: VEGFR2 (Homo sapiens (Human), UniProt P35968); experiment: VEGFR2 Cellular Assay (VEGF induced intracellular calcium, FLIPR, HUVEC); type: cell-based; conditions: VEGF165 stimulation (10 ng/mL)
Sequence of VEGFR2 (P35968 20-1356): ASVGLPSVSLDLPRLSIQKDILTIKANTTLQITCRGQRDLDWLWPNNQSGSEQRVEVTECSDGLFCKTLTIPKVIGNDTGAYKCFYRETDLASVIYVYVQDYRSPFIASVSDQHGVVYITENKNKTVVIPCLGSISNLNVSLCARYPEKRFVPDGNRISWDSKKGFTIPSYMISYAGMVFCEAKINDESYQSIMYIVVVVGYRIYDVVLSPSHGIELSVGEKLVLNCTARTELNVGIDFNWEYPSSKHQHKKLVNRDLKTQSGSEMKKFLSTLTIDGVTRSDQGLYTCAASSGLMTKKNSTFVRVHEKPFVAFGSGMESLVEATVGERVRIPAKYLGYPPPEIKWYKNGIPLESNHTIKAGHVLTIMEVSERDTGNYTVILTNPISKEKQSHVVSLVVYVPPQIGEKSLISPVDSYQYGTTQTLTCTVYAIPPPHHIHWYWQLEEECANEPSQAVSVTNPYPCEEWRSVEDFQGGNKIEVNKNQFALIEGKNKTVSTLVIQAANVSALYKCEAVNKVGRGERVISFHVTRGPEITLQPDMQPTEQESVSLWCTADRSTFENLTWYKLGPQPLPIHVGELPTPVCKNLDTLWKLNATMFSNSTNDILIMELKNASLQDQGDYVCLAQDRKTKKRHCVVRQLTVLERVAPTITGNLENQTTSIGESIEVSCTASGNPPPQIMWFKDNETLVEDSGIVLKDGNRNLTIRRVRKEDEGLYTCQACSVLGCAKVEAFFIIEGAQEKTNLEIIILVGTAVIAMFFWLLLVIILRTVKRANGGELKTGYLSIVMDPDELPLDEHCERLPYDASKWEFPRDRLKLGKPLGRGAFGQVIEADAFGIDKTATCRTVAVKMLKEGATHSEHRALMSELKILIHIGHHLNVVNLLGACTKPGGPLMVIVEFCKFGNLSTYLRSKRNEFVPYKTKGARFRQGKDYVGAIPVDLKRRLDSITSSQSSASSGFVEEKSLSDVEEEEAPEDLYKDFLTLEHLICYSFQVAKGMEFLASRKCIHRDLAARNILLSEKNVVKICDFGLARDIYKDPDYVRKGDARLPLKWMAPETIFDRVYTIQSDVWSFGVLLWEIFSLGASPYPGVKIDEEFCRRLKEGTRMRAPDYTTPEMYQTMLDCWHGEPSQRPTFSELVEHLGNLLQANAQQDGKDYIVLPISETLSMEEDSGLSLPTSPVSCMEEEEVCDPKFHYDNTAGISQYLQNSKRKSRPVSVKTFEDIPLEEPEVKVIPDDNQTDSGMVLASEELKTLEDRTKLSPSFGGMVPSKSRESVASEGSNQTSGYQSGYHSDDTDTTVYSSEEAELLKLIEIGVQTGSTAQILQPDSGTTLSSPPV
Procedure: as §1, with “VEGFR2 Cellular Assay Automated” for “Automated”, “of VEGF induced” for “of PDGF-induced”, “cells. HUVEC (human umbilical vein endothelial cells) (Clonetics)” for “cells. NHDF-Ad (Normal Human Dermal Fibroblasts, Adult; Lonza)”, “by VEGF165” for “by PDGF-BB”, “stimulation (10” for “stimulation (30”, “of VEGF” for “of PDGF-BB”

[3] = biological target: T1, PDGFRβ; experiment: PDGFRβ Kinase Assay; type: biochemical; conditions: purified cytoplasmic domain PDGFR-b protein, 36 μM ATP; read-out: PDGFRβ Enzyme Assay (IC50 nM)
Procedure: Biochemical PDGFRβ kinase assays were performed in 96 well microtiter plates that were coated overnight with 75 μg of poly-Glu-Tyr (4:1) in 10 mM Phosphate Buffered Saline (PBS), pH 7.4.
(§2) PBS-T prior to starting the reaction. Reactions were carried out in 100 μL reaction volumes containing 36 μM ATP in kinase buffer (50 mM Hepes buffer pH 7.4, 20 mM MgCl2, 0.1 mM MnCl2 and 0.2 mM Na3VO4). […] Reactions were initiated by the addition 20 ul per well of kinase buffer containing 200-300 ng purified cytoplasmic domain PDGFR-b protein (Millipore). Following a 60 minute incubation at 30° C., the reactions were washed 2 mls per well PBS-T. 100 μl of a monoclonal anti-phosphotyrosine antibody-peroxidase conjugate diluted 1:10,000 in PBS-T was added to the wells for 30 minutes. Following a 2 mls per well wash with PBS-Tween-20, 100 μl of O-Phenylenediamine Dihydrochloride in phosphate-citrate buffer, containing urea hydrogen peroxide, was added to the wells for 7-10 minutes as a colorimetric substrate for the peroxidase. […] IC50 values for compound inhibition were calculated directly from graphs of optical density (arbitrary units) versus compound concentration following subtraction of blank values.
Target sequence in this assay (P09619 554-1106): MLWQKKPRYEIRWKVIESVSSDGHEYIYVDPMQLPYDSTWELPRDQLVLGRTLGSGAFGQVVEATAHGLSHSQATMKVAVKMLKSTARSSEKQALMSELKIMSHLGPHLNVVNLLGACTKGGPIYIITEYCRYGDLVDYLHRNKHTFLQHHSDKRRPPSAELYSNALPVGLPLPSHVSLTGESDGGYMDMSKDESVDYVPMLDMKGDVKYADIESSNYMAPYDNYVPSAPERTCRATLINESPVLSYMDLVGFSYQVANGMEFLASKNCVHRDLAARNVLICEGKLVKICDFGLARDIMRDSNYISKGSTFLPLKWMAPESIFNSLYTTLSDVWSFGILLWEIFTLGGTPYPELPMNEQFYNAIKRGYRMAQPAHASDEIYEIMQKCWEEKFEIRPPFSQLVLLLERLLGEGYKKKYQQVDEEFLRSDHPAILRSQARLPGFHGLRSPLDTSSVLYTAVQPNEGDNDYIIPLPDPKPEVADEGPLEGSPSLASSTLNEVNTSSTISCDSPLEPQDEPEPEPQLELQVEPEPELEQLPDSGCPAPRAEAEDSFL

[4] = biological target: VEGFR2 (KDR) (Homo sapiens (Human), UniProt P35968); experiment: VEGFR2 Kinase Assay; type: biochemical; conditions: purified cytoplasmic domain KDR protein, 2.7 μM ATP; read-out: VEGFR2 Enzyme Assay (IC50 nM)
Sequence of VEGFR2 (KDR) (P35968 786-1356): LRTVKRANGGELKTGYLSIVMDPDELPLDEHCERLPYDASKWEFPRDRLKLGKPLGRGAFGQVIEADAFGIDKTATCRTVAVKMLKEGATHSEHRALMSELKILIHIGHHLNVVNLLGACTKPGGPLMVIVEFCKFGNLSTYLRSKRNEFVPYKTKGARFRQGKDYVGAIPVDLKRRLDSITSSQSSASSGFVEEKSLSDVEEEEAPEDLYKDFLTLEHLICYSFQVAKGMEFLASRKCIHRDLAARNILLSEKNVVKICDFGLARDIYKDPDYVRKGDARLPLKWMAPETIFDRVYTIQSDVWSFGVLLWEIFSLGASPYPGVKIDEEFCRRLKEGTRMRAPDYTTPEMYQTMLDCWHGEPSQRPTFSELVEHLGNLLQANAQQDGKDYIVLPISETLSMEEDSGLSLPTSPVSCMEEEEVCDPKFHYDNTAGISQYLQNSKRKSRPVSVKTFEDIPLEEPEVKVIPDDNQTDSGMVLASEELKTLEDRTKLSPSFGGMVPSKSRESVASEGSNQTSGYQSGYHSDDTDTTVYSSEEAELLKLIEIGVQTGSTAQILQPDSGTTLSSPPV
Procedure: as §2, with “VEGFR2 Kinase Assay Biochemical KDR kinase assays were performed in 96 well microtiter plates that were coated overnight with 75 μg/well of poly-Glu-[…]:1) in 10 mM Phosphate Buffered Saline (PBS), pH 7.4. […]” for “PBS-T prior to starting the reaction.”, “2.7” for “36”, “KDR” for “PDGFR-b”, “(BPS Bioscience, San Diego, Calif.).” for “(Millipore).”, “15” for “60”, “0-Phenylenediamine” for “O-Phenylenediamine”

[5] = test system: VEGF permeability model; experiment: VEGF permeability model, intravitreal injection; type: in vivo; conditions: dosed by intravitreal injection

| IC50 [1] [nM] | IC50 [2] [nM] | IC50 [3] [nM] | IC50 [4] [nM] | in vivo efficacy in the VEGF permeability model [5] | Structure (SMILES) |
| --- | --- | --- | --- | --- | --- |
| 11 | 1 | 16 | 6 | – | Cc1ccoc1C(=O)Nc1cccc(C#Cc2cc(C(=O)N=S(C)(C)=O)cnc2N)c1 [Example 1, 6-Amino-N-[dimethyl(oxido)-λ^4-sulfanylidene]-5-({3-[(3-methyl-2-furoyl)amino]phenyl}ethynyl)nicotinamide] |
| 66 | 3 | 34 | 2 | – | Cc1ccoc1C(=O)Nc1cccc(C#Cc2cncc(C(=O)N=S3(=O)CCCC3)c2)c1 [Example 3, 5-({3-[(3-Methyl-2-furoyl)amino]phenyl}ethynyl)-N-(1-oxidotetrahydro-1H-λ^4-thien-1-ylidene)nicotinamide] |
| 15 | 2 | 30 | 2 | – | Cc1ccoc1C(=O)Nc1cccc(C#Cc2cc(C(=O)N=S3(=O)CCCC3)cnc2N)c1 [Example 4, 6-Amino-5-({3-[(3-methyl-2-furoyl)amino]phenyl}ethynyl)-N-(1-oxidotetrahydro-1H-1λ^4-thien-1-ylidene)nicotinamide] |
| 28 | 10 | – | 3 | – | Cc1ccc(F)c(NC(=O)Nc2cccc(C#Cc3cncc(C(=O)N=S(C)(C)=O)c3)c2)c1 [Example 8, N-[Dimethyl(oxido)-λ^4-sulfanylidene]-5-{[3-({[(2-fluoro-5-methylphenyl)amino]carbonyl}amino)phenyl]ethynyl}nicotinamide] |
| 31 | 1 | 54 | 7 | good in vivo efficacy | COC(=O)CCCCS(C)(=O)=NC(=O)c1cnc(N)c(C#Cc2cccc(NC(=O)c3occc3C)c2)c1 (centres unmarked) [Example 23, Methyl 5-(N-{[6-amino-5-({3-[(3-methyl-2-furoyl)amino]phenyl}ethynyl)pyridin-3-yl]carbonyl}-S-methylsulfonimidoyl)pentanoate] |
| 10 | 1 | 11 | 4 | good in vivo efficacy | COC(=O)CCCCS(C)(=O)=NC(=O)c1cnc(N)c(C#Cc2cccc(NC(=O)c3cccc(C)c3)c2)c1 (centres unmarked) [Example 26, Methyl 5-(N-{[6-amino-5-({3-[(3-methylbenzoyl)amino]phenyl}ethynyl)pyridin-3-yl]carbonyl}-S-methylsulfonimidoyl)pentanoate] |
| 19 | 1 | 40 | 10 | – | COC(=O)CCCCS(C)(=O)=NC(=O)c1cnc(N)c(C#Cc2cccc(NC(=O)c3cc(C(F)(F)F)ccc3F)c2)c1 (centres unmarked) [Example 27, Methyl 5-[N-({6-amino-5-[(3-{[2-fluoro-5-(trifluoromethyl)benzoyl]amino}phenyl)ethynyl]pyridin-3-yl}carbonyl)-S-methylsulfonimidoyl]pentanoate] |
| 12 | 4 | 9 | 4 | – | COC(=O)CCCCS(C)(=O)=NC(=O)c1cnc(N)c(C#Cc2cccc(NC(=O)c3cccc(C(F)(F)F)c3)c2)c1 (centres unmarked) [Example 28, Methyl 5-[N-({6-amino-5-[(3-{[3-(trifluoromethyl)benzoyl]amino}phenyl)ethynyl]pyridin-3-yl}carbonyl)-S-methylsulfonimidoyl]pentanoate] |
| 15 | 6 | 25 | 4 | – | COC(=O)CCCCS(C)(=O)=NC(=O)c1cnc(N)c(C#Cc2cccc(NC(=O)c3ccc(Cl)c(C(F)(F)F)c3)c2)c1 (centres unmarked) [Example 29, Methyl 5-[N-({6-amino-5-[(3-{[4-chloro-3-(trifluoromethyl)benzoyl]amino}phenyl)ethynyl]pyridin-3-yl}carbonyl)-S-methylsulfonimidoyl]pentanoate] |
| 9 | 1 | 14 | 5 | good in vivo efficacy | COC(=O)CCCCS(C)(=O)=NC(=O)c1cnc(N)c(C#Cc2cccc(NC(=O)c3cccc(OC)c3)c2)c1 (centres unmarked) [Example 30, Methyl 5-(N-{[6-amino-5-({3-[(3-methoxybenzoyl)amino]phenyl}ethynyl)pyridin-3-yl]carbonyl}-S-methylsulfonimidoyl)pentanoate] |
| 13 | 4 | 38 | 15 | – | COC(=O)CCCCS(C)(=O)=NC(=O)c1cnc(N)c(C#Cc2cccc(NC(=O)c3ccc(OC)c(OC)c3)c2)c1 (centres unmarked) [Example 31, Methyl 5-(N-{[6-amino-5-({3-[(3,4-dimethoxybenzoyl)amino]phenyl}ethynyl)pyridin-3-yl]carbonyl}-S-methylsulfonimidoyl)pentanoate] |
| 60 | 1 | 31 | 3 | good in vivo efficacy | COC(=O)CCCC[S@](C)(=O)=NC(=O)c1cnc(N)c(C#Cc2cccc(NC(=O)c3occc3C)c2)c1 [Example 32, (S)-methyl 5-(N-{[6-amino-5-({3-[(3-methyl-2-furoyl)amino]phenyl}ethynyl)pyridin-3-yl]carbonyl}-S-methylsulfonimidoyl)pentanoate] |
| 86 | 1 | 27 | 6 | good in vivo efficacy | COC(=O)CCCC[S@@](C)(=O)=NC(=O)c1cnc(N)c(C#Cc2cccc(NC(=O)c3occc3C)c2)c1 [Example 33, (R)-Methyl 5-(N-{[6-amino-5-({3-[(3-methyl-2-furoyl)amino]phenyl}ethynyl)pyridin-3-yl]carbonyl}-S-methylsulfonimidoyl)pentanoate] |
| 18 | 1 | – | 10 | – | COC(=O)CCCCS(C)(=O)=NC(=O)c1cnc(N)c(C#Cc2cccc(C(=O)Nc3cc(C(C)(C)C)on3)c2)c1 (centres unmarked) [Example 36, Methyl 5-[N-({6-amino-5-[(3-{[(5-tert-butylisoxazol-3-yl)amino]carbonyl}phenyl)ethynyl]pyridin-3-yl}carbonyl)-S-methylsulfonimidoyl]pentanoate] |
| 25 | – | 13 | 4 | – | COC(=O)CCCCS(C)(=O)=NC(=O)c1cnc(N)c(C#Cc2cccc(NC(=O)Nc3cccc(C)c3)c2)c1 (centres unmarked) [Example 38, Methyl 5-{N-[(6-amino-5-{[3-({[(3-methylphenyl)amino]carbonyl}amino)phenyl]ethynyl}pyridin-3-yl)carbonyl]-S-methylsulfonimidoyl}pentanoate] |
